The values below come from patent publication US12017992B2, “Compounds for modulating mitochondrial function” (Mayo Foundation for Medical Education and Research, priority 2015, dated 2024).

SMILES strings stand for the structures.

The nature of this data set: Comment on salt form (Table 3). It counts as physicochemical. The settings on record: TFA salt.

As to `Cc1cccc(O[C@@H]2CCC[C@H](C(C)CNCc3ccncc3)C2)c1` (stereo partly shown), the “Comments (salt form)” value was “Highly hygroscopic”.
